Read-outs that look alike come from different tables or passages of the source.
Target: eNP-CTD (Ebola virus nucleoprotein C-terminal domain, residues 641-739) (Zaire ebolavirus, UniProt P18272)
Experiment: biochemical
Type: binding

Sequence of eNP-CTD (Ebola virus nucleoprotein C-terminal domain, residues 641-739) (P18272 641-739 limits assumed): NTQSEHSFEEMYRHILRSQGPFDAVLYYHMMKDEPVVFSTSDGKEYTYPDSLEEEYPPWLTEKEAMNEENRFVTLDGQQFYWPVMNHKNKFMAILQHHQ

## CNCC1CCN(Cc2cccnc2)CC1 [CC69846, N-methyl-[1-(pyrid-3-ylmethyl)piperid-4-yl]methylamine]
  Site 1 ligand efficiency: 1.6 ± 0.2 (0.24)
  Site 3 ligand efficiency: 1.9 ± 0.3 (0.24)
  Site 4 ligand efficiency: 4.9 ± 1.8 (0.20)
Site 1 Kd ± Std. Error
  Kd: 1.6 mM
Site 3 Kd ± Std. Error
  Kd: > 1.63 mM
Site 4 Kd ± Std. Error
  Kd: > 1.63 mM
pH 7
  Site 2 Kd ± Std. Error: did not bind
  Site 4 Kd ± Std. Error: lower affinity
read-out: Site 2 Kd ± Std. Error, pH 7
  Kd: > 7 mM
